Experimental data taken from patent US11840686B2, “Modulation of prekallikrein (PKK) expression” (Ionis Pharmaceuticals, Inc., priority 2013, dated 2023).
Strand notation (5' to 3'): a small letter for the sugar, then the base; units joined by * are phosphorothioate-linked, units joined directly phosphodiester-linked; [ ] holds rarer units or linkages, { } end groups; capitals alone tell only the bases. e = 2'-O-(2-methoxyethyl) (MOE); [5mC] = 5-methylcytosine; d = 2'-deoxy (DNA)

What follows are substances tested on human PKK mRNA (assay: Antisense inhibition of human PKK mRNA in HepaRG cells, 5,000 nM (Example 2)). Settings: HepaRG cells, electroporation with 5,000 nM antisense oligonucleotide, approximately 24 hours, PKK mRNA by RT-PCR (RTS3454), relative to untreated control cells; Table 6 experiment.
Type: cell-based
In short: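 Percent inhibition of PKK mRNA is reported relative to untreated cells, after adjustment for total RNA by RIBOGREEN. Gapmers of 16–20 nucleosides with 2′-MOE wings were delivered at 5,000 nM by electroporation into HepaRG cells and left for roughly 24 hours before RNA isolation.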

In order of falling “% inhibition” value:
1. 547350 (antisense eG*eG*e[5mC]*eA*eT*dT*d[5mC]*dT*dT*d[5mC]*dA*dA*d[5mC]*dA*d[5mC]*eT*eG*e[5mC]*eT*eA) [compound 547350]  96%
2. 547352 (antisense e[5mC]*e[5mC]*eG*eG*eT*dA*d[5mC]*dT*d[5mC]*dT*dG*d[5mC]*d[5mC]*dT*dT*eG*eT*eG*eA*eA) [compound 547352]  94%
3. 547351 (antisense eT*eT*eT*eG*eG*d[5mC]*dA*dT*dT*d[5mC]*dT*dT*d[5mC]*dA*dA*e[5mC]*eA*e[5mC]*eT*eG) [compound 547351]  92%
4. 547354 (eA*eT*eT*eG*eT*dT*d[5mC]*d[5mC]*dG*dG*dT*dA*d[5mC]*dT*d[5mC]*eT*eG*e[5mC]*e[5mC]*eT; antisense) [compound 547354]  89%
5. 547363 (eG*eG*e[5mC]*eA*eA*d[5mC]*dA*dT*d[5mC]*d[5mC]*dA*d[5mC]*dA*dT*d[5mC]*eT*eG*eA*eG*eA; antisense) [compound 547363]  84%
6. 547348 (antisense eA*e[5mC]*eA*e[5mC]*eT*dG*d[5mC]*dT*dA*dA*d[5mC]*d[5mC]*dT*dT*dA*eG*eA*e[5mC]*eA*e[5mC]) [compound 547348]  83%
7. 547356 (eT*eA*eA*eT*eA*dG*dG*d[5mC]*dA*dA*dT*dT*dG*dT*dT*e[5mC]*e[5mC]*eG*eG*eT; antisense) [compound 547356]  83%
8. 547359 (e[5mC]*eG*eG*eG*eA*d[5mC]*dT*dG*dT*dA*d[5mC]*dT*dT*dT*dA*eA*eT*eA*eG*eG; antisense) [compound 547359]  81%
9. 547357 (e[5mC]*eT*eT*eT*eA*dA*dT*dA*dG*dG*d[5mC]*dA*dA*dT*dT*eG*eT*eT*e[5mC]*e[5mC]; antisense) [compound 547357]  78%
10. 547355 (e[5mC]*eA*eA*eT*eT*dG*dT*dT*d[5mC]*d[5mC]*dG*dG*dT*dA*d[5mC]*eT*e[5mC]*eT*eG*e[5mC]; antisense) [compound 547355]  77%
11. 547362 (e[5mC]*eA*eA*e[5mC]*eA*dT*d[5mC]*d[5mC]*dA*d[5mC]*dA*dT*d[5mC]*dT*dG*eA*eG*eA*eA*e[5mC]; antisense) [compound 547362]  47%
12. 547361 (eG*e[5mC]*eA*eA*e[5mC]*d[5mC]*dA*dA*dT*dT*dT*d[5mC]*dT*dG*dA*eA*eA*eG*eG*eG; antisense) [compound 547361]  46%

Same assay, conditions: Table 7; HepaRG cells, electroporation with 5,000 nM antisense oligonucleotide, approx. 24 hours; PKK mRNA by RT-PCR (RTS3454), relative to untreated control cells

In order of falling “% inhibition” value:
1. 547365 (eT*eG*eA*eG*eA*dA*d[5mC]*d[5mC]*d[5mC]*dT*dG*dG*d[5mC]*dA*dA*e[5mC]*eA*eT*e[5mC]*e[5mC]; antisense) [compound 547365]  81%
2. 547367 (eA*eT*e[5mC]*eT*eG*dG*dA*dG*dT*dG*dA*dG*dA*dA*d[5mC]*e[5mC]*e[5mC]*eT*eG*eG; antisense) [compound 547367]  76%
3. 547369 (eA*eA*eG*e[5mC]*eA*dT*d[5mC]*dT*dG*dG*dA*dG*dT*dG*dA*eG*eA*eA*e[5mC]*e[5mC]; antisense) [compound 547369]  76%
4. 547370 (e[5mC]*eA*eA*eA*eA*dG*d[5mC]*dA*dT*d[5mC]*dT*dG*dG*dA*dG*eT*eG*eA*eG*eA; antisense) [compound 547370]  73%
5. 547371 (eA*eT*eG*eG*eT*d[5mC]*d[5mC]*dG*dA*d[5mC]*dA*d[5mC]*dA*d[5mC]*dA*eA*eA*eA*eG*e[5mC]; antisense) [compound 547371]  66%
6. 547372 (eG*eA*eT*eG*eG*dT*d[5mC]*d[5mC]*dG*dA*d[5mC]*dA*d[5mC]*dA*d[5mC]*eA*eA*eA*eA*eG; antisense) [compound 547372]  32%
